Results as given in patent US6391584B1, “Expression-cloning method for identifying target proteins for eukaryotic tyrosine kinases and novel target proteins” (New York University Medical Center, priority 1991, dated 2002).
Values belong to the molecule of their own block, whether it stands above or below them.

Columns and labels:
[1] = tested on: GRB2 phosphorylation in HER14 cells; experiment: GRB2 phosphorylation in (32P) orthophosphate-labelled, EGF stimulated HER14 cells; format: cell-based; conditions: vanadate (200 μM) at 37° C. for 20 min prior to the addition of EGF
Method: Labeling cells with (^32P)-orthophosphate were carried out as previously described (Li et al., Mol. Biol. Cell 2:641-649, 1991). Briefly, confluent HER14 cells starved for 16 hrs in 1% FCS/DMEM were incubated for two hours in Pi-free media, and labeled for two hours in Pi-free media, dialyzed FBS, 1 mCi/ml orthophosphate (carrier free, 314.5-337.5 TBq/mmole, purchased form NEN, Wilmington, Del.) at 37° C. Where appropriate, cells were incubated with vanadate (200 μM) at 37° C. for the last 20 minutes of cell labeling. Cells were then stimulated for two minutes with EGF (250 ng/ml) or PDGF (50 ng/ml), rapidly washed 2 times with ice cold phosphate-buffered saline (PBS), and solubilized immediately in lysis buffer (10 mM Tris-Cl pH 7.6, 50 mM NaCl, […] sodium pyrophosphate, 50 mM sodium fluoride, 100 μM sodium orthovanadate, 5 μM ZnCl2, 1 mM PMSF and 0.5% Triton-X-100). […]
To determine if the failure to detect tyrosine phosphorylated GRB2 was due to the rapid dephosphorylation by a protein tyrosine phosphatase, a potent tyrosine phosphatase inhibitor, vanadate, was tested for its effects upon GRB2 phosphorylation. (^32p) orthophosphate-labelled cells were incubated with or without vanadate at 37° C. for 20 min prior to the addition of EGF, and GRB2 phosphorylation was assessed as described above.

EGFR = molecular target: T1, EGFR (Homo sapiens, UniProt P00533); experiment: Binding of PLC-γ to immunoprecipitated, autophosphorylated full length EGFR; fraction remaining bound after washes; conditions: Mean+/−SEM, n=4; anti PLC-γ blot with (125I)Protein A, bands quantitated in a γ counter
T1 construct: Full length EGFR was immunoprecipitated with Mab108, and allowed to autophosphorylate; expressed in transfected cells; host or cells: NIH-3T3 cells transfected with wild-type EGFR (HER14)
Method: FIG. 11 is a gel pattern showing that phosphorylation of PLC-γ reduces its binding to the EGF receptor. Full length EGFR was immunoprecipitated with Mab108, and allowed to autophosphorylate. Lysate from PLC-γ overexpressing 3T-P1 cells was added and mixed for 90 min at 4° C. After binding, ATP was added to one half of the samples allowing the PLC-γ molecules to be phosphorylated by the EGF receptor. SDS-PAGE sample buffer-was then added to one half of the EGFR-PLC-γ complexes (NO WASH, left panel) and directly loaded onto the 6% gel. The other half was washed three times with HNTG and then loaded on the gel (WASH, right panel. After running duplicate samples on SDS-PAGE, the proteins were transferred to nitrocellulose and probed with anti PLC-γ and (^125I)Protein A. The bands were subsequently cut from the nitrocellulose and quantitated in a γ counter. After three washes with HNTG, 50+/−5% (Mean+/−SEM, n=4) of the non-phosphorylated PLC-γ remained bound to the EGFR while only 22+/−4% of the phosphorylated PLC-γ remained (exposure time: 12 h).
The techniques used are described in several references from the present inventors, laboratory (Margolis, B. L. et al., J. Biol. Chem. 264: 10667-10671 (1989); Cell 57:1101-1107 (1989)). […]

Molecule: [O]=[V]([O-])([O-])[O-] [Vanadate, vanadate]
effect on GRB2 phosphorylation [1]: did not result in detectable GRB2 phosphorylation

PLC-γ remaining bound to the EGFR after three washes with HNTG (EGFR): 22+/−4%
B1: phosphorylated PLC-γ: PLC-γ from 3T-P1 cell lysate phosphorylated by the EGF receptor after addition of ATP (protein, UniProt Q62077 2-1302, looked up)
1-phosphatidylinositol …: AGVATPCANGCGPGAPSEAEVLHLCRSLEVGTVMTLFYSKKSQRPERKTFQVKLETRQITWSRGADKIEGSIDIREIKEIRPGKTSRDFDRYQEDPAFRPDQSHCFVILYGMEFRLKTLSLQATSEDEVNMWIKGLTWLMEDTLQAATPLQIERWLRKQFYSVDRNREDRISAKDLKNMLSQVNYRVPNMRFLRERLTDLEQRSGDITYGQFAQLYRSLMYSAQKTMDLPFLETNALRTGERPEHCQVSLSEFQQFLLEYQGELWAVDRLQVQEFMLSFLRDPLREIEEPYFFLDELVTFLFSKENSVWNSQLDAVCPDTMNNPLSHYWISSSHNTYLTGDQFSSESSLEAYARCLRMGCRCIELDCWDGPDGMPVIYHGHTLTTKIKFSDVLHTIKEHAFVASEYPVILSIEDHCSIAQQRNMAQHFRKVLGDTLLTKPVDIAADGLPSPNQLRRKILIKHKKLAEGSAYEEVPTSVMYSENDISNSIKNGILYLEDPVNHEWYPHYFVLTSSKIYYSEETSSDQGNEDEEEPKEASSSTELHSSEKWFHGKLGAGRDGRHIAERLLTEYCIETGAPDGSFLVRESETFVGDYTLSFWRNGKVQHCRIHSRQDAGTPKFFLTDNLVFDSLYDLITHYQQVPLRCNEFEMRLSEPVPQTNAHESKEWYHASLTRAQAEHMLMRVPRDGAFLVRKRNEPNSYAISFRAEGKIKHCRVQQEGQTVMLGNSEFDSLVDLISYYEKHPLYRKMKLRYPINEEALEKIGTAEPDYGALYEGRNPGFYVEANPMPTFKCAVKALFDYKAQREDELTFTKSAIIQNVEKQDGGWWRGDYGGKKQLWFPSNYVEEMINPAVLEPEREHLDENSPLGDLLRGVLDVPACQIAIRPEGKNNRLFVFSISMPSVAQWSLDVAADSQEELQDWVKKIREVAQTADARLTEGKMMERRKKIALELSELVVYCRPVPFDEEKIGTERACYRDMSSFPETKAEKYVNKAKGKKFLQYNRLQLSRIYPKGQRLDSSNYDPLPMWICGSQLVALNFQTPDKPMQMNQALFMAGGHCGYVLQPSTMRDEAFDPFDKSSLRGLEPCVICIEVLGARHLPKNGRGIVCPFVEIEVAGAEYDSTKQKTEFVVDNGLNPVWPAKPFHFQISNPEFAFLRFVVYEEDMFSDQNFLAQATFPVKGLKTGYRAVPLKNNYSEDLELASLLIKIDIFPAKENGDLSPFSGISLRERASDASSQLFHVRAREGSFEARYQQPFEDFRISQEHLADHFDSRERSTSDGPSSATNLIEDPLHDKLWKCSL
modifications: tyrosine phosphorylated by EGF receptor
notes: PLC-γ from 3T-P1 cell lysate phosphorylated by the EGF receptor after addition of ATP
